This note sets out measurements from patent US12268694B2, “Combination pharmaceutical agents as RSV inhibitors” (Enanta Pharmaceuticals, Inc., priority 2017, dated 2025).

Where two headings read alike, the source gives them in different places.

This test has as its system genotype A, "Long" strain RSV. As to the kind of experiment: RSV-A assay: CPE protection in HEp-2 cells, ATPlite readout. Format: cell-based, human respiratory syncytial virus. The source says: HEp-2 cells, (originally derived from tumors grown in irradiated-cortisonised weanling rats that had been injected with epidermoid carcinoma tissue from a person's larynx, but later found to be indistinguishable from HeLa cells by PCR DNA analysis), were used for the culturing of genotype A, “Long” strain RSV. Flasks were inoculated with RSV and viral stocks were collected once cytopathic effect (CPE) was greater than 90%. Viral stocks in 25% sucrose media were snap frozen using liquid nitrogen to increase viral stability. Viral stock titers were quantified by tissue culture infectious dose 50% (TCID50) using 8,000 cells per well and 3-fold viral dilutions across a 96-well plate, cultured for 4 days. Viral stock titers were also quantified by a plaque forming unit assay, as described elsewhere.
Following extensive parameter testing, the final assay is run as follows: HEp-2 cells are seeded into the inner 60 wells of a 96-well plate at 8,000 cells per well in a volume of 50 μL using Growth Media (DMEM without phenol red, 1% L-Glut, 1% Penn/Strep, 1% nonessential amino acids, 10% heat-inactivated FBS). 2-fold serial dilutions of control and test compounds are added to the wells in duplicate in a total volume of 25 μL. Viral stock is then added to the wells at a multiplicity of infection (MOI) of 0.1 in a volume of 25 μL, bringing the total volume of each well to 100 μL. The MOI is calculated using the PFU/mL, or TCID50 if unavailable. Each 96-well plate has a control column of 6 wells with cells and virus but no compound (negative control, max CPE), a column with cells but no compound or virus (positive control, minimum CPE), and a column with no cells or virus or compound (background plate/reagent control). The control wells with cells but no virus are given an additional 25 μL of growth media containing an equal quantity of sucrose as those wells receiving the viral stock in order to keep consistent in media and volume conditions. The outer wells of the plate are filled with 125 μL of moat media (DMEM, 1% Penn/Strep) to act as a thermal and evaporative moat around the test wells. Following a 5-day incubation period, the plates are read using ATPlite (50 μL added per well), which quantifies the amount of ATP (a measure of cell health) present in each well. Assay plates are read using the Envision luminometer. In parallel, cytotoxicity is examined on an additional 96-well plate treated in an identical manner, but substituting the 25 μL of viral stock for 25 μL of growth media. […] EC50 ranges are as follows: A <0.4 μM; B 0.4-0.8 μM; C >0.8 μM and CC50 ranges are as follows: A >50 μM; B 10-50 μM; C <10 μM.
In general terms: ATP-based viability assays read luminescence as a measure of living cells.

The mark [1] stands for this setting: human respiratory syncytial virus, HEp-2, read-out: Human RSV-A (“Long” strain) EC50.

With `O=C1Nc2ccccc2C(c2ccccc2)=N[C@@H]1Nc1nnc(-c2cn(-c3cccnc3)nc2N2CCOCC2)o1` [Example 425], under setting [1], the EC50 was < 400 nM.
In the case of `COCCOc1ccccc1-c1nnc(NC2N=C(c3ccccc3)c3ccccc3NC2=O)o1` (stereo not drawn) [Example 229], the EC50 under setting [1] was > 800 nM.
On the same count and under the same terms, as for `O=C1Nc2ccccc2C(c2ccccc2)=NC1Nc1nnc(-c2ccccc2N2CCOCC2)[nH]1` (stereo not drawn) [Example 367], the figure is > 800 nM.
Still for that read-out and setting: to `O=C1Nc2ccccc2C(c2ccccc2)=NC1Nc1nnc(CCc2ccccc2)o1` (stereo not drawn) [Example 199] belongs > 800 nM; to `O=C1Nc2ccccc2C(c2ccccc2)=N[C@H]1Nc1nnc(-c2ccc(N3CCOCC3)cc2)o1` [Example 124b], > 800 nM.
Turning to `O=C1Nc2ccccc2C(c2ccccc2)=NC1Nc1nnc(-c2ccc(F)nc2N2CCOCC2)o1` (stereo not drawn) [Example 149], under “HEp-2 cells, RSV-A Long strain, ATPlite readout, read-out: Human RSV-A (“Long” strain) EC50”, the EC50 is 400 to 800 nM.
With `CN1CCN(c2cc(C(F)(F)F)cnc2-c2nnc(N[C@H]3N=C(c4ccccc4)c4ccccc4NC3=O)o2)CC1=O` [Example 296], the EC50 under setting [1] was > 800 nM.
Consider `O=C1Nc2ccccc2C(c2ccccc2)=NC1Nc1nnc(-c2ccc(-n3cncn3)c(F)c2)o1` (stereo not drawn) [Example 216], for which the EC50 under setting [1] lay within 400 to 800 nM.
Regarding `O=C1Nc2ccccc2C(c2ccccc2)=NC1Nc1cnc(-c2ccc(F)cc2)cn1` (stereo not drawn) [Example 373], the EC50 under setting [1] is > 800 nM.
`O=C1Nc2ccccc2C(c2ccccc2)=N[C@@H]1Nc1nnc(-c2ncc(C3CC3)cc2N2CC3CCC(C2)O3)o1` [Example 321]: the EC50 under setting [1] was < 400 nM.
As to `O=C1Nc2ccccc2C(c2ccccc2)=N[C@@H]1Nc1nnc(-c2ccc(N3CCCC3)cc2N2CCOCC2)o1` [Example 317], the 50% effective concentration (EC50) under setting [1] is < 400 nM.
Turning to `CCOC1(c2nc(-c3nnc(N[C@H]4N=C(c5ccccc5)c5ccccc5NC4=O)o3)c(N3CCOCC3)s2)CCC1` (stereo in doubt) [Example 458], the EC50 under setting [1] is < 400 nM.
Turning to `COCCCc1sc(C)nc1-c1nnc(N[C@H]2N=C(c3ccccc3)c3ccccc3NC2=O)o1` [Example 479], the EC50 under setting [1] is > 800 nM.
In the case of `N#Cc1ccc(-c2nnc(N[C@H]3N=C(c4ccccc4)c4ccccc4NC3=O)o2)c(-c2ccoc2)c1` [Example 319], the EC50 under setting [1] was > 800 nM.
Still for that read-out and setting: as for `CC1(c2nnc(NC3N=C(c4ccccc4)c4ccccc4NC3=O)o2)CCNC1` (stereo not drawn) [Example 223], the figure is > 800 nM; as for `CC1(c2nc(-c3nnc(N[C@H]4N=C(c5ccccc5)c5ccccc5NC4=O)o3)c(N3CCOCC3)s2)CCC1` [Example 478], < 400 nM.
Take `O=C1Nc2ccccc2C(c2ccccc2)=NC1Nc1nnc(-c2ccc(-n3ccc(C(F)(F)F)n3)cc2)o1` (stereo not drawn) [Example 202]: under setting [1], the EC50 is > 800 nM.
The same measure, in the same setting: as for `O=C1Nc2ccccc2C(c2ccccc2)=N[C@@H]1Nc1nnc(-c2nc3ccccc3nc2N2CCOCC2)o1` [Example 433], the figure is < 400 nM; as for `N#Cc1cccc(C2=NC(Nc3nnc(-c4ccc(F)cc4)o3)C(=O)Nc3ccccc32)c1` (stereo not drawn) [Example 381], > 800 nM.
As for `CS(=O)(=O)Cc1nnc(NC2N=C(c3ccccc3)c3ccccc3NC2=O)o1` (stereo not drawn) [Example 194], the EC50 under setting [1] was > 800 nM.
`O=C1Nc2ccccc2C(c2ccccc2)=N[C@@H]1Nc1nnc(-c2ncc(C(F)(F)F)cc2N[C@@H]2CCC[C@@H]2O)o1` [Example 423]: the EC50 under setting [1] lay within 400 to 800 nM.
Still for that read-out and setting: as for `O=C1Nc2ccccc2C(c2ccccc2)=NC1Nc1ccc(-c2ccncc2)nn1` (stereo not drawn) [Example 375], the figure is > 800 nM.
For `O=C1Nc2ccccc2C(c2ccccc2)=NC1Nc1ncc(-c2ccccc2)cn1` (stereo not drawn) [Example 371], the EC50 under setting [1] was > 800 nM.
With `CNc1cc(C(F)(F)F)cnc1-c1nnc(N[C@H]2N=C(c3ccccc3)c3ccccc3NC2=O)o1` [Example 307], the EC50 under setting [1] was > 800 nM.
Regarding `COC1CN(c2cc(C(F)(F)F)cnc2-c2nnc(N[C@H]3N=C(c4ccccc4)c4ccccc4NC3=O)o2)C1` [Example 271], the EC50 under setting [1] was > 800 nM.
With `N#CCNc1cc(C(F)(F)F)cnc1-c1nnc(N[C@H]2N=C(c3ccccc3)c3ccccc3NC2=O)o1` [Example 331], under setting [1], the EC50 is > 800 nM.
As for `COCCc1cccn2ncc(-c3nnc(N[C@H]4N=C(c5ccccc5)c5ccccc5NC4=O)o3)c12` [Example 411], the EC50 under setting [1] was > 800 nM.
For the molecule `Cc1ccc(-c2nnc(N[C@H]3N=C(c4ccccc4)c4ccccc4NC3=O)o2)c(N2CC3CCC(C2)O3)n1` [Example 279], the EC50 under setting [1] was < 400 nM.
Consider `O=C1Nc2ccccc2C(c2ccccc2)=N[C@@H]1Nc1nnc(-c2nc(C(F)(F)F)sc2N[C@@H]2CCOC2)o1` [Example 474], for which the EC50 under setting [1] is < 400 nM.
With `CCCc1nnc(NC2N=C(c3ccccc3)c3ccccc3NC2=O)o1` (stereo not drawn) [Example 190], the EC50 under setting [1] is > 800 nM.
Consider `O=C1Nc2ccccc2C(c2ccccc2)=NC1Nc1cc(-c2ccccc2)cnn1` (stereo not drawn) [Example 462], for which the EC50 under setting [1] is > 800 nM.
Still for that read-out and setting: as for `O=C1Nc2ccccc2C(c2ccccc2)=N[C@@H]1Nc1nnc(-c2ncc3ccccc3c2N2CCOCC2)o1` [Example 316], the figure is > 800 nM.
For `COCCNc1ccc(-c2nnc(NC3N=C(c4ccccc4)c4ccccc4NC3=O)o2)cc1` (stereo not drawn) [Example 117], the EC50 under setting [1] is > 800 nM.
`O=C1Nc2ccccc2C(c2ccccc2)=N[C@@H]1Nc1nnc(-c2cc3ccccc3nc2N2CCOCC2)o1` [Example 434]: the EC50 under setting [1] was < 400 nM.
As to `O=C1Nc2ccccc2C(c2ccccc2)=N[C@@H]1Nc1nnc(-c2nc(C(F)(F)F)sc2C2=CCOCC2)o1` [Example 453], under setting [1], the EC50 is < 400 nM.
Regarding `O=C1Nc2ccccc2C(c2ccccc2)=N[C@@H]1Nc1nnc(-c2ncc(C(F)(F)F)cc2N2CCOC(C(F)(F)F)C2)o1` (mixture of isomers) [Example 467], under setting [1], the EC50 is < 400 nM.
Still for that read-out and setting: as for `CN1C(=O)C(Nc2nnc(-c3ccc(F)cc3)o2)N=C(c2ccccc2)c2ccccc21` (stereo not drawn) [Example 201], the figure is > 800 nM; as for `O=C1Nc2ccccc2C(c2ccccc2)=NC1Nc1nnc(-c2ncc(C(F)(F)F)cc2CCO)o1` (stereo not drawn) [Example 450], > 800 nM; as for `O=C1Nc2ccccc2C(c2ccccc2)=N[C@@H]1Nc1nnc(-c2ccc(C(F)(F)F)cc2N2CCOCC2)o1` [Example 152], < 400 nM.
For the molecule `O=C1Nc2ccccc2C(c2ccccc2)=NC1Nc1nnc(C2CCOC2)o1` (stereo not drawn) [Example 215], the EC50 under setting [1] is > 800 nM.
In the case of `O=C1Nc2ccccc2C(c2ccccc2)=N[C@@H]1Nc1nnc(-c2cc(C(F)(F)F)sc2N2CCOCC2)o1` [Example 383], the EC50 under setting [1] is < 400 nM.
The same measure, in the same setting: as for `O=C1Nc2ccccc2C(c2ccccc2)=NC1Nc1nnc(-c2ccc(-n3cncn3)nc2)o1` (stereo not drawn) [Example 225], the figure is > 800 nM; as for `O=C1Nc2ccccc2C(c2ccccc2)=N[C@@H]1Nc1nnc(-c2ccc(N3CCOCC3)cc2F)o1` [Example 126a], < 400 nM; as for `O=C1Nc2ccccc2C(c2ccccc2)=NC1Nc1nnc(-c2cccnc2N2C[C@H]3COC[C@H]3C2)o1` (stereo partly drawn) [Example 267], > 800 nM.
Same read-out and setting: to `COCc1ccc2nccc(-c3nnc(N[C@H]4N=C(c5ccccc5)c5ccccc5NC4=O)o3)c2c1` [Example 409] belongs > 800 nM; to `O=C1Nc2ccccc2C(c2ccccc2)=N[C@@H]1Nc1nnc(-c2ccc(N3CCOCC3)cc2)o1` [Example 124a], < 400 nM.
On the same count and under the same terms, as for `CC(C)(O)CNc1cc(C(F)(F)F)cnc1-c1nnc(N[C@H]2N=C(c3ccccc3)c3ccccc3NC2=O)o1` [Example 297], the figure is < 400 nM; as for `COCCCc1sc(C(F)(F)F)nc1-c1nnc(N[C@H]2N=C(c3ccccc3)c3ccccc3NC2=O)o1` [Example 396], > 800 nM.
`O=C1Nc2ccccc2C(c2ccccc2)=N[C@@H]1Nc1nnc(-c2nc(C3(O)CCC3)sc2N2CCOCC2)o1` [Example 455]: the EC50 under setting [1] is < 400 nM.
Regarding `CS(=O)(=O)c1cnc(-c2nnc(N[C@H]3N=C(c4ccccc4)c4ccccc4NC3=O)o2)c(N2CCOCC2)c1` [Example 332], the EC50 under setting [1] is > 800 nM.
Take `O=C1Nc2ccccc2C(c2ccccc2)=NC1Nc1nnc(-c2ncccc2N2CCOCC2)o1` (stereo not drawn) [Example 132]: the EC50 under setting [1] is < 400 nM.
On to `O=C1Nc2ccccc2C(c2ccccc2)=N[C@@H]1Nc1nnc(-c2ncc(C(F)(F)F)cc2N[C@@H]2CCOC2)o1` [Example 464], for which the EC50 under setting [1] was < 400 nM.
For `COCCNc1cc(C(F)(F)F)cnc1-c1nnc(N[C@H]2N=C(c3ccccc3)c3ccccc3NC2=O)o1` [Example 305], the EC50 under setting [1] is < 400 nM.
As for `Cc1nsc(N2CCOCC2)c1-c1nnc(N[C@H]2N=C(c3ccccc3)c3ccccc3NC2=O)o1` [Example 465], the EC50 under setting [1] is 400 to 800 nM.

What is called EC50 is the concentration that produces a half-maximal response.
